Test results as given in paper PMC10766610, “DCAF1-based PROTACs with activity against clinically validated targets overcoming intrinsic- and acquired-degrader resistance” (Nature Communications, 2024).
“Also recorded” adds a separate entry of the source.

Tests used:
[1] = system: HEK293T cells; experiment: Whole proteomics profile, DDa-1 vs (13), HEK293T cells; type: cell-based, human; details: 5 µM DDa-1 vs 5 µM (13), 6 h
Description: HEK293T and TMD8 cells were cultured according to protocol and 3 million cells were plated per sample and recovered for 24 h. The following day, cells were treated with indicated compounds at corresponding concentrations for 6 h. Cells were then harvested and washed 2× with PBS before removing all liquid and snap freezing in liquid nitrogen before sample preparation for proteomics.
TMT-labeled peptides were generated with the iST-NHS kit (PreOmics) and TMT10plex (duplicates per condition) or TMT18plex (triplicates per condition) reagent (Thermo Fisher Scientific). Equal amounts of labeled peptides were pooled and separated on a high pH fractionation system with a water-acetonitrile gradient containing 10 mM ammonium formate, pH 11[88]. Alternating rows of the resulting 72 fractions were pooled into 24 samples, dried and resuspended in water containing 0.1% formic acid.
The LC-MS analysis was carried out on an EASY-nLC 1200 system coupled to an Orbitrap Fusion Lumos Tribrid mass spectrometer (Thermo Fisher Scientific). […]
LC-MS raw files were analyzed with Proteome Discoverer 2.4 (Thermo Fisher Scientific). […] TMT reporter ions of the MS3 spectra were integrated with a 20 ppm tolerance and the reporter ion intensities were used for quantification. […] Protein relative quantification was performed using an in-house developed R (v.3.6) script. […]

[2] = molecular target: T1, LIMK2 (Homo sapiens, UniProt P53671); experiment: Immunoblot of LIMK2 in HEK293T cells; type: cell-based; details: 6 h
T1 construct: host or cells: HEK293T
Description: Whole cell lysates for immunoblotting were prepared by pelleting cells at 4 °C (300 g) for 3 min. Cell pellets were then washed 1x with PBS and resuspended in RIPA lysis buffer (VWR, cat # 97063-270) supplemented with protease (Thermo Scientific, cat # A32955) and phosphatase (Thermo Scientific, cat # A32957) inhibitor tablets. Lysates were clarified at 16,000 × g for 15 min at 4 °C prior to quantification by Lowry assay (Bio-Rad cat # 5000113 and cat # 5000114). Whole-cell lysates were loaded into 4–20% Criterion TGX Precast 18 well gels (Bio-Rad, cat # 5671094) and separated by electrophoreses at 120 V for 1 h. The gels were transferred to a nitrocellulose membrane using the Trans-Blot Turbo (Bio-Rad) for 7 min and then blocked for 1 h at room temperature in Odyssey blocking buffer (LICOR Biosciences, cat # 927-50000). Membranes were probed with the appropriate primary antibodies (diluted 1:1000) overnight at 4 °C in 20% Odyssey blocking buffer in 1x TBST. Membranes were washed three times with 1x TBST (5 min per wash), and then incubated with IRDye goat anti-mouse (LICOR, cat # 926-32210) or goat anti-rabbit (LICOR, cat # 926-32211) secondary antibody diluted 1:10,000 in 20% Odyssey blocking buffer for 1 h at room temperature. After three 5-min washes with 1x TBST, the immunoblots were visualized using the ODYSSEY Infrared Imaging System (LICOR). […]

T1 sequence (P53671 whole entry): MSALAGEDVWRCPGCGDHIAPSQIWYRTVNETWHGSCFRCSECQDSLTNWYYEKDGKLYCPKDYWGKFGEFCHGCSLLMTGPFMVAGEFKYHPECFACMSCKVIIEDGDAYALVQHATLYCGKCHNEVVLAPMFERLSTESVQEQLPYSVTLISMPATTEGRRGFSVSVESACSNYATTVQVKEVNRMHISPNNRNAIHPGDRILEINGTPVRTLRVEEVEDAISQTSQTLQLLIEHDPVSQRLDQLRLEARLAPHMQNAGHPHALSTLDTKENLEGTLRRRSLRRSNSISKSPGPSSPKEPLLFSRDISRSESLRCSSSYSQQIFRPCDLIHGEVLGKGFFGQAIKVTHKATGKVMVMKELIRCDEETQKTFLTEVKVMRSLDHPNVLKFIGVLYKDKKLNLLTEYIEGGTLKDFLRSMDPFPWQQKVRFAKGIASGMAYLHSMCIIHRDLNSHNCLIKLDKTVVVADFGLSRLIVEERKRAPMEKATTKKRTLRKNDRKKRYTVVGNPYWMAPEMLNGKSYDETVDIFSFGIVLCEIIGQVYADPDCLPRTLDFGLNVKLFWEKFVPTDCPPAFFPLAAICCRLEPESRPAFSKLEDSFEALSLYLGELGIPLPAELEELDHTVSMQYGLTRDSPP

In the case of `Cc1nc(Nc2ncc(C(=O)Nc3c(C)cccc3Cl)s2)cc(N2CCC(OC3CCN(CCCCCCCC(=O)N4CCN(c5ccc6c(NCCN)nc(C7(c8ccc(Cl)cc8)CCCCC7)nc6c5)CC4)CC3)CC2)n1` [DDa-1], the “kinases with significant protein level reduction (LC/MS proteomics)” value [1] is reported as “CSK and LIMK2; also recorded: TEC and TNK2” and the LIMK2 protein levels [2] is reported as “significant reduction in protein levels”.
